Assay results published in patent US5179100A, “4,5-dihydropyrazolo[3,4-a]acridines” (Hoechst-Roussel Pharmaceuticals inc., priority 1992, dated 1993).
Counter-ions that a name gives are not always drawn.

Tested on: 2-phenyl-1,4-benzoquinone-induced writhing in mice
Assay: 2-phenyl-1,4-benzoquinone-induced writhing test in mice (PQW Activity), analgesia
Format: in vivo
Experimental: Exptl. […] The tests were conducted at the subcutaneous dose of 20 mg/kg.

SMILES	PQW Activity, % Inhibition (subcutaneous, 20 mg/kg) [%]	PQW Activity, % Inhibition (33 mg/kg, s.c. (reference compound)) [%]
Nc1c2c(nc3ccccc13)CCc1cn(CC(=O)O)nc1-2 [11-Amino-4,5-dihydro-2H-pyrazolo[3,4-a]acridine-2-acetic acid hydrochloride hemihydrate]	58	–
Cn1cc2c(n1)-c1c(nc3ccccc3c1N)CC2 [11-Amino-4,5-dihydro-2-methyl-2H-pyrazolo[3,4-a]acridine]	54	–
CC(=O)Oc1ccccc1C(=O)O [Aspirin, reference compound]	–	50
CCn1cc2c(n1)-c1c(nc3ccccc3c1N)CC2 [11-Amino-4,5-dihydro-2-ethyl-2H-pyrazolo[3,4-a]acridine]	67	–
CN(C)CCn1cc2c(n1)-c1c(nc3ccccc3c1N)CC2 [11-Amino-4,5-dihydro-2-(2-dimethylaminoethyl)-2H-pyrazolo [3,4-a]acridine]	59	–
Nc1c2c(nc3ccccc13)CCc1cnn(-c3ccccc3)c1-2 [11-Amino-4,5-dihydro-1-phenyl-1H-pyrazolo[3,4-a]acridine]	48	–
N#CCn1cc2c(n1)-c1c(nc3ccccc3c1N)CC2 [11-Amino-4,5-dihydro-2H-pyrazolo[3,4-a]acridine-2-acetonitrile]	47	–
